The values below come from patent US11597933B2, “Combination therapy of lymphoma” (The Trustees of Columbia University in the City of New York, priority 2017, dated 2023).

Read-outs that look alike come from different tables or passages of the source.

The Cmax is the peak of the concentration-time curve.

Data set [1] has as its system R/R DLBCL or follicular lymphoma (FL). The conditions noted are these: 800 mg BID, cited from earlier work.
The test system of data set [2] is Pfeiffer. Briefly: Cell viability assay, Pfeiffer. The conditions noted are these: for IC50: Pfeiffer. The format is cell-based. The source says: (§1) OCI-LY1, SU-DHL-2, SU-DHL-6, Pfeiffer, Farage, Toledo, Riva, HBL-1, Jeko-1, Z-138, H9, and HH were obtained from ATCC. OCI-LY7, OCI-LY10, SU-DHL-10 and OCI-LY3 were obtained from DSMZ. PF382, and P12 were a gift from the laboratory of Adolfo Fernando. TLOM-1 and MT-1 were obtained from Kyoto University; and MT-2 was obtained from Memorial Sloan Kettering Cancer Center. All cell lines were authenticated and screened for mycoplasma using the ATCC/Promega STR Authentication Testing Kit and Lonza MycoAlert.
(§2) Synergy was assessed by excess over bliss (EOB). […] Criteria for analyzing interactions between biologically active agents. Advances in cancer research 1981; 35:269-335.
(§3) To understand the effects of EZH2 inhibition and HDAC inhibition in cell lines with or without EZH2 dysfunction and HAT mutations, a panel of 21 lymphoma cell lines were exposed to GSK126, an EZH2 inhibitor, and romidepsin, a pan-HDAC inhibitor, as single agents. Both B-cell and TCL were selected in order to establish a range of drug sensitivity and mutational status. EZH2 status and HAT mutational status were confirmed.

Data set [3] deals with SU-DHL-10. Description: Cell viability assay, SU-DHL-10. It counts as cell-based.
Source text: as §1, §2, §3

The subject of data set [4] is MT-1. Description: Cell viability assay, MT-1. The format is cell-based.
Source text: as §1, §2, §3

In data set [5] the test system is RbAp 46/48 (RBBP4). Description: Acetyl-lysine immunoprecipitation and mass spectrometry. It counts as cell-based. The conditions noted are these: SU-DHL-10 cells, acetyl-lysine antibody IP, compared to control, FDR<1.0%. On the procedure: Immunoprecipitation was performed using Thermo Scientific™ Pierce™ MS-Compatible Magnetic IP Kit (#84840). Protein was incubated with EZH2 or acetylated-lysine antibody. Antibody bound proteins were eluted and run into SDS PAGE. The excised gel lane pieces were reduced, alkylated, and digested in Trypsin Gold (Promega) digestion buffer (Thermo Fischer Scientific). Condensed evaporated water was collected by brief centrifugation using microcentrifuge (Eppendorf). The gel pieces and digestion reaction were mixed with 2.5% Trifluoretic Acids (TFA, Thermo Fischer Scientific). Peptides were extracted with 70% acetonitrile (ACN/5% TFA mixture) (Thermo Fischer Scientific). The extracts were pooled and dried to completion in SpeedVac.
The concentrated peptide mix was reconstituted in a solution of 2% ACN, 2% formic acid (FA) for MS analysis. Peptides were eluted from the column using a Dionex Ultimate 3000 Nano LC system. Using Thermo Fusion Tribrid mass spectrometer (Thermo Scientific), eluted peptides were electro sprayed. Mass spectrometer-scanning functions and HPLC gradients were controlled by the Xcalibur data system (Thermo Fischer).
Tandem mass spectra from raw files were searched against uniprot_human_170129.fasta data base using the Proteome Discoverer 2.1 (Thermo Fischer). The […] protein database was downloaded as FASTA-formatted sequences from Uniprot protein database (January 2017). […]

Data set [6] has as its system Farage. Description: Cell viability assay, Farage. It counts as cell-based.
Source text: as §1, §2, §3

The test system of data set [7] is Riva. Description: Cell viability assay, Riva. It counts as cell-based.
Source text: as §1, §2, §3

Data set [8] deals with HH. Description: Cell viability assay, HH. The format is cell-based.
Source text: as §1, §2, §3

The subject of data set [9] is HBL-1. Description: Cell viability assay, HBL-1. The format is cell-based.
Source text: as §1, §2, §3

The test system of data set [10] is Toledo. Briefly: Cell viability assay, Toledo. It counts as cell-based.
Source text: as §1, §2, §3

Data set [11] can be described thus: Pharmacokinetic analysis of serum and tumor samples. As to conditions: single exposure to GSK126 and romidepsin, over 24 hours.
Method: (§4) F. Serum romidepsin pharmacokinetic parameters after single injection of GSK and romidepsin over 24 hours.
The test system of data set [12] is OCI-LY1. Description: Cell viability assay, OCI-LY1. The format is cell-based.
Source text: as §1, §2, §3

Data set [13] is described as follows: in vivo. As to conditions: mouse, serum, ip.
Method: as §4
Data set [14] relates to Z-138. Briefly: Cell viability assay, Z-138. It counts as cell-based.
Source text: as §1, §2, §3

In data set [15] the test system is PF-382. Briefly: Cell viability assay, PF-382. It counts as cell-based.
Source text: as §1, §2, §3

Data set [16] concerns OCI-LY10. Description: Cell viability assay, OCI-LY10. It counts as cell-based.
Source text: as §1, §2, §3

The subject of data set [17] is Jeko-1. Briefly: Cell viability assay, Jeko-1. The format is cell-based.
Source text: as §1, §2, §3

For data set [18], the system named is TLOM-1. Description: Cell viability assay, TLOM-1. It counts as cell-based.
Source text: as §1, §2, §3

Data set [19] has as its system SU-DHL-2. Briefly: Cell viability assay, SU-DHL-2. The format is cell-based.
Source text: as §1, §2, §3

Data set [20] relates to H9. Briefly: Cell viability assay, H9. It counts as cell-based.
Source text: as §1, §2, §3

The subject of data set [21] is OCI-LY7. Briefly: Cell viability assay, OCI-LY7. It counts as cell-based.
Source text: as §1, §2, §3

Data set [22] has as its system OCI-LY3. Briefly: Cell viability assay, OCI-LY3. The format is cell-based.
Source text: as §1, §2, §3

Data set [23] relates to SU-DHL-6. Briefly: Cell viability assay, SU-DHL-6. The format is cell-based.
Source text: as §1, §2, §3

The subject of data set [24] is P12. Description: Cell viability assay, P12. It counts as cell-based.
Source text: as §1, §2, §3

Data set [25] deals with MT-2. Description: Cell viability assay, MT-2. The format is cell-based.
Source text: as §1, §2, §3

The subject of data set [26] is HEK 293T cells. Briefly: H3K27 acetylation and methylation in HEK 293T cells. The format is cell-based. The conditions noted are these: single agent exposure in HEK 293T cells.
The conditions of data set [27]: mouse, in vivo.
Method: as §4
The mark [28] stands for this setting: 72 h, read-out: IC50 Romidespin.
The mark [29] stands for this setting: Homo sapiens, 72 h, read-out: IC50 Romidespin.
Where [30] appears, read: GC-DLBCL, EZH2 Wildtype, 144 hours, read-out: IC50 GSK126.

Take `CCN(c1cc(-c2ccc(CN3CCOCC3)cc2)cc(C(=O)NCc2c(C)cc(C)[nH]c2=O)c1C)C1CCOCC1` [tazemetostat]: the tolerability entry in [1] (preliminary results) is on record as “well tolerated”. In data set [1], the “treatment related emergent adverse events: anemia” value was 10%, the “treatment related emergent adverse events: nausea” value was 14% and the “treatment related emergent adverse events: thrombocytopenia” value was 13%.

As to `CCN(c1cc(C#CCN2CCOCC2)cc(C(=O)NCc2c(C)cc(C)[nH]c2=O)c1C)[C@H]1CC[C@H](N(C)CCOC)CC1` [EPZ011989], the “sensitivity, cell viability curve” value in data set [2] (Pfeiffer (GC-DLBCL), single agent) was “potent sensitivity”.

Take `C/C=C1\NC(=O)[C@H]2CSSCC/C=C/[C@H](CC(=O)N[C@H](C(C)C)C(=O)N2)OC(=O)[C@H](C(C)C)NC1=O` [romidepsin]: the IC50 in data set [3] (Homo sapiens, SU-DHL10, 72 h, read-out: IC50 Romidespin, SU-DHL-10, GC-DLBCL, EP300 mis mut/CREBBP trunc mut, 72-hour exposure) was 2.59 nM; in data set [3] (read-out: IC50 Romidespin, SU-DHL-10, GC-DLBCL, EP300 mis mut/CREBBP trunc mut, 72-hour exposure), 2.1 nM; in data set [4] (setting [28]), 2.8 nM; in [6] (setting [28]) it was 1.7 nM; in data set [7] (setting [28]), 1.5 nM; in data set [8] (setting [29]), 1.1 nM. In addition, the IC50 amounted to 1 nM in data set [9] (HBL1, 72 h, read-out: IC50 Romidespin); 1 nM in [10] (setting [29]); 2.5 nM in [12] (Homo sapiens, OCI-Ly1, 72 h, read-out: IC50 Romidespin); 1.1 nM in data set [14] (Homo sapiens, Z-138, 72 h, read-out: IC50 Romidespin); 3.5 nM in data set [15] (Homo sapiens, PF-382, 72 h, read-out: IC50 Romidespin); 1 nM in data set [16] (Homo sapiens, OCI-Ly10, 72 h, read-out: IC50 Romidespin). The IC50 in [17] (Homo sapiens, JeKo-1, 72 h, read-out: IC50 Romidespin) is 1.1 nM; in [18] (setting [28]), 4.3 nM; in data set [19] (Homo sapiens, SU-DHL-2, 72 h, read-out: IC50 Romidespin), 1.3 nM; in data set [20] (Homo sapiens, H9, 72 h, read-out: IC50 Romidespin), 1.3 nM; in data set [21] (Homo sapiens, OCI-Ly7, 72 h, read-out: IC50 Romidespin) it was 1.5 nM; in [2] (setting [29]), 6 nM. Further, the IC50 is 1.7 nM in data set [22] (Homo sapiens, OCI-Ly3, 72 h, read-out: IC50 Romidespin); 2 nM in [23] (Homo sapiens, SU-DHL-6, 72 h, read-out: IC50 Romidespin); 4.3 nM in data set [24] (P12, 72 h, read-out: IC50 Romidespin); 2.7 nM in [25] (Homo sapiens, MT2, 72 h, read-out: IC50 Romidespin). Further, in data set [5], the “increase of RbAp 46/48 (RBBP4) estimated by spectral counts” value is given as 2 fold. Further, in data set [11], the intratumor concentration entry was “below the level of detection”. The compound further had a Cmax in data set [13] of 0.0251 µg/mL.

For the compound `CC[C@H](C)n1cc(C)c2c(C(=O)NCc3c(C)cc(C)[nH]c3=O)cc(-c3ccc(N4CCNCC4)nc3)cc21` [GSK126], the IC50 in data set [3] (SU-DHL-10, GC-DLBCL, EZH2 Y641F, Y646S, 144 hours, read-out: IC50 GSK126) turned out to be 700 nM; in data set [4] (MT-1, ATLL, EZH2 Overexpression, 144 hours, read-out: IC50 GSK126), 4400 nM; in data set [6] (setting [30]) it was 10000 nM; in data set [7] (Riva, ABC-DLBCL, EZH2 Wildtype, 144 hours, read-out: IC50 GSK126), 7500 nM; in data set [8] (CTCL, EZH2 Wildtype, 144 hours, read-out: IC50 GSK126) it was 4400 nM; in [9] (HBL-1, ABC-DLBCL, EZH2 Wildtype, 144 hours, read-out: IC50 GSK126) it was 4200 nM. Further, the IC50 in data set [10] (setting [30]) is 6000 nM; in [12] (OCI-LY1, GC-DLBCL, EZH2 Y602N, Y646N, 144 hours, read-out: IC50 GSK126), 3700 nM; in data set [14] (Z-138, Mantle Cell, EZH2 Overexpression, 144 hours, read-out: IC50 GSK126) it was 7100 nM; in [15] (PF-382, T-ALL, EZH2 Wildtype, 144 hours, read-out: IC50 GSK126), 5600 nM; in [16] (OCI-LY10, ABC-DLBCL, EZH2 Wildtype, 144 hours, read-out: IC50 GSK126), 6400 nM; in data set [17] (Jeko-1, Mantle Cell, EZH2 Overexpression, 144 hours, read-out: IC50 GSK126), 10000 nM. Also, the IC50 in data set [18] (TLOM-1, ATLL, EZH2 Overexpression, 144 hours, read-out: IC50 GSK126) is 1500 nM; in data set [19] (SU-DHL-2, ABC-DLBCL, EZH2 Wildtype, 144 hours, read-out: IC50 GSK126), 4400 nM; in [20] (H9, CTCL, EZH2 Wildtype, 144 hours, read-out: IC50 GSK126) it was 6100 nM; in data set [21] (OCI-LY7, GC-DLBCL, EZH2 Wildtype, 144 hours, read-out: IC50 GSK126) it was 4300 nM; in data set [2] (GC-DLBCL, EZH2 A677G, 144 hours, read-out: IC50 GSK126), 100 nM; in [22] (OCI-LY3, ABC-DLBCL, EZH2 Wildtype, 144 hours, read-out: IC50 GSK126), 7200 nM. For the same compound, the IC50 in data set [23] (SU-DHL-6, GC-DLBCL, EZH2 Y602N, Y646N, 144 hours, read-out: IC50 GSK126) stood at 3100 nM; in data set [24] (P12, T-ALL, EZH2 Wildtype, 144 hours, read-out: IC50 GSK126) it was 6000 nM; in [25] (MT-2, ATLL, EZH2 Overexpression, 144 hours, read-out: IC50 GSK126) it was 9000 nM. Besides, the “status of acetylation or methylation of H3K27” value in [26] is reported as “did not significantly change”. The Cmax came out at 3.15 µM in [27] and 1.6575 ± 0.4136 µg/mL in [27] (ip). Besides, in data set [27], the “serum AUC0-last” value is 2.82857 µg·h/mL.
